# Values joined by “and” are separate entries in the source; they are usually repeats but may differ in a detail not shown here. Equal entries are not always repeated. Structures can show the parent of a compound that is named as a salt.
# Columns and labels:
# [1] = peripheral vasodilation; cited from earlier work
# [2] = tested on: spontaneously hypertensive rats; assay: Heart rate-modifying action in spontaneously hypertensive rats; type: in vivo, spontaneously hypertensive rats (SHR rats)
# Protocol: (§1) The substances were administered orally with a probang to fasting spontaneously hypertensive rats. The animals were fasted 17 hours before the start of the experiment. All the substances were dissolved in 1% strength carboxymethylcellulose (MH 300), and the administration volume was 10 ml/kg. The starting values of the blood pressure and heart rate were recorded directly before the administration. The action of the substance was measured 1, 2, 4, 7 and 24 hours after the administration. The measurement was performed non-invasively with a W+W Recorder 8002, it being possible to measure the systolic blood pressure and the heart rate. The animals were offered food again 4 hours after administration of the substance. The values can be seen from Table 1, page 5. […] The experiment was carried out by the same method as in Example 1, and the values can be seen in Table 2.
# [3] = tested on: spontaneously hypertensive rats; assay: Hypotensive action (systolic blood pressure, W+W Recorder 8002) in spontaneously hypertensive rats; type: in vivo, spontaneously hypertensive rats (SHR rats)
# Protocol: as §1
# [4] = tested on: collagen-induced aggregation of human platelets; assay: Inhibition of collagen-induced aggregation of human platelets in vitro (method of Born, platelet-rich human plasma); type: cell-based
# Protocol: Inhibition of the collagen-induced aggregation of human platelets by the combination of 4,5-dihydro-6-[4-(1-imidazolyl)-thien-2-yl]-5-methyl-3(2H)-pyridazinone hydrochloride (D) with lofexidine (A).
# The inhibition of collagen-induced platelet aggregation in vitro was carried out by the method of Born (Nature, 194, 927-929 (1962)) on platelet-rich human plasma with 4,5-dihydro-6-[4-(1-imidazolyl)-thien-2-yl]-5-methyl-3(2H)-pyridazinone hydrochloride (D), lofexidine (A) and with mixtures of A and D.
# In each case the mean value of 4 independent determinations has been given. In the investigations of the mixtures, the concentration of A was constant at 1×10^-5 mole/l.
smiles,measurement,setting,value
Nc1cc(N2CCCCC2)nc(N)[n+]1[O-] [minoxidil],side effect in hypertension therapy,[1],reflex tachycardia
NNc1nncc2ccccc12 [hydralazine],side effect in hypertension therapy,[1],reflex tachycardia
"CC1CC(=O)NN=C1c1cc(-n2ccnc2)cs1 (stereo not drawn) [Substance C, 4,5-dihydro-6-[4-(1-imidazolyl)-thien-2-yl]-5-methyl-3(2H)-pyridazinone]","Heart rate, Δ after administration of the substance","[2]; 10.0 mg/kg p.o., 1 hour",+104 ± 21 beats/minute
same,"Heart rate, Δ after administration of the substance","[2]; 10.0 mg/kg p.o., 2 hours",+91 ± 10 beats/minute
same,"Heart rate, Δ after administration of the substance","[2]; 10.0 mg/kg p.o., 4 hours",+70 ± 12 beats/minute
same,"Heart rate, Δ after administration of the substance","[2]; 10.0 mg/kg p.o., 7 hours",+36 ± 13 beats/minute
same,"Systolic blood pressure, Δ after administration of the substance","[3]; 10.0 mg/kg p.o., 1 hour",-48.1 ± 16.2 mmHg
same,"Systolic blood pressure, Δ after administration of the substance","[3]; 10.0 mg/kg p.o., 2 hours",-66.2 9.9 mmHg
same,"Systolic blood pressure, Δ after administration of the substance","[3]; 10.0 mg/kg p.o., 4 hours",-93.9 ± 6.8 mmHg
same,"Systolic blood pressure, Δ after administration of the substance","[3]; 10.0 mg/kg p.o., 7 hours",-98.9 ± 9.1 mmHg
"CC(Oc1c(Cl)cccc1Cl)C1=NCCN1.Cl (racemic) [Substance A, (±)-2-[1-(2,6-dichlorophenoxy)-ethyl]-1,3-diazacyclopent-2-ene hydrochloride]",% inhibition of collagen-induced platelet aggregation,"[4]; A at 1 × 10^-5 mole/l, D 0, mean of 4 determinations",3%
same,"Heart rate, Δ after administration of the substance","[2]; 0.1 mg/kg p.o., 1 hour",+10 ± 13 beats/minute
same,"Heart rate, Δ after administration of the substance","[2]; 0.1 mg/kg p.o., 2 hours",+37 ± 27 beats/minute
same,"Heart rate, Δ after administration of the substance","[2]; 0.1 mg/kg p.o., 4 hours",+12 ± 12 beats/minute
same,"Heart rate, Δ after administration of the substance","[2]; 0.1 mg/kg p.o., 7 hours",-14 ± 12 beats/minute
same,"Heart rate, Δ after administration of the substance","[2]; 1.0 mg/kg p.o., 1 hour, hydrochloride",-22 ± 18 beats/minute and -22 ± 8 beats/minute
same,"Heart rate, Δ after administration of the substance","[2]; 1.0 mg/kg p.o., 2 hours",-6 ± 13 beats/minute
same,"Heart rate, Δ after administration of the substance","[2]; 1.0 mg/kg p.o., 4 hours",-2 ± 15 beats/minute
same,"Heart rate, Δ after administration of the substance","[2]; 1.0 mg/kg p.o., 7 hours",-10 ± 16 beats/minute
same,"Systolic blood pressure, Δ after administration of the substance","[3]; 0.1 mg/kg p.o., 1 hour",-18.8 ± 16.6 mmHg
same,"Systolic blood pressure, Δ after administration of the substance","[3]; 0.1 mg/kg p.o., 2 hours",-4.0 ± 18.6 mmHg
same,"Systolic blood pressure, Δ after administration of the substance","[3]; 0.1 mg/kg p.o., 4 hours",-11.8 ± 23.2 mmHg
same,"Systolic blood pressure, Δ after administration of the substance","[3]; 0.1 mg/kg p.o., 7 hours",-10.8 ± 26.9 mmHg
same,"Systolic blood pressure, Δ after administration of the substance","[3]; 1.0 mg/kg p.o., 1 hour",-28.4 ± 13.1 mmHg
same,"Systolic blood pressure, Δ after administration of the substance","[3]; 1.0 mg/kg p.o., 2 hours",-22.8 ± 11.8 mmHg
same,"Systolic blood pressure, Δ after administration of the substance","[3]; 1.0 mg/kg p.o., 4 hours",-23.6 ± 15.5 mmHg
same,"Systolic blood pressure, Δ after administration of the substance","[3]; 1.0 mg/kg p.o., 7 hours",-22.2 ± 17.4 mmHg
NNc1nnc(NN)c2ccccc12 [dihydralazine],side effect in hypertension therapy,[1],reflex tachycardia
"CC1CC(=O)NN=C1c1ccc(-n2ccnc2)cc1 (stereo not drawn) [Substance B, 4,5-dihydro-6-[4-(1-imidazolyl)-phenyl]-5-methyl-3(2H)-pyridazinone]","Heart rate, Δ after administration of the substance","[2]; 10.0 mg/kg p.o., 1 hour",+113 ± 14 beats/minute
same,"Heart rate, Δ after administration of the substance","[2]; 10.0 mg/kg p.o., 2 hours",+108 ± 10 beats/minute
same,"Heart rate, Δ after administration of the substance","[2]; 10.0 mg/kg p.o., 4 hours",+85 ± 21 beats/minute
same,"Heart rate, Δ after administration of the substance","[2]; 10.0 mg/kg p.o., 7 hours",+129 ± 24 beats/minute
same,"Heart rate, Δ after administration of the substance","[2]; 10.0 mg/kg p.o., 24 hours",+16 ± 16 beats/minute
same,"Systolic blood pressure, Δ after administration of the substance","[3]; 10.0 mg/kg p.o., 1 hour",-95.4 ± 3.4 mmHg
same,"Systolic blood pressure, Δ after administration of the substance","[3]; 10.0 mg/kg p.o., 2 hours",-97.2 ± 4.6 mmHg
same,"Systolic blood pressure, Δ after administration of the substance","[3]; 10.0 mg/kg p.o., 4 hours",-98.4 ± 5.6 mmHg
same,"Systolic blood pressure, Δ after administration of the substance","[3]; 10.0 mg/kg p.o., 7 hours",-93.0 ± 5.6 mmHg
same,"Systolic blood pressure, Δ after administration of the substance","[3]; 10.0 mg/kg p.o., 24 hours",-35.8 ± 6.6 mmHg
"CC1CC(=O)NN=C1c1cc(-n2ccnc2)cs1 (stereo not drawn) [Substance D, 4,5-dihydro-6-[4-(1-imidazolyl)-thien-2-yl]-5-methyl-3(2H)-pyridazinone hydrochloride]",IC50,"[4]; Homo sapiens, Platelet, read-out: concentration for a half-maximum inhibition (IC50) of the collagen-induced platelet aggregation",46 nM

# Source: patent US4661487A (priority 1984, dated 1987)
